These results are taken from patent US20200079773A1, “CARBOXYLIC ACID DERIVATIVES OF PYRIDOQUINAZOLINES USEFUL AS PROTEIN KINASE INHIBITORS” (ONCOSTELLAE, S.L., priority 2017, published 2020).

Common to all, as to type: biochemical
One experiment concerns the target T1, TYK2 (Homo sapiens, UniProt P29597).
T1 construct: purchased Carna Biosciences 08-147
T1 sequence (P29597 871-1187 limits assumed): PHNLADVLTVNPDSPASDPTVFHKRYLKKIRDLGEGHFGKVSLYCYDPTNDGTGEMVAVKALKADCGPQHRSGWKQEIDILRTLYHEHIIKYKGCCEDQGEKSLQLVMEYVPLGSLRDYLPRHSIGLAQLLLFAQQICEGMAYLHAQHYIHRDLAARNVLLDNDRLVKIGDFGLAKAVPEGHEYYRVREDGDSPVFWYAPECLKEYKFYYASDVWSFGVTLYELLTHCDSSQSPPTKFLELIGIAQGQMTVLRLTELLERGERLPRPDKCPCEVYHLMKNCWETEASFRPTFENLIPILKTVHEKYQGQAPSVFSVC
The experiment can be described thus: Functional assay of protein kinases (Caliper mobility shift), TYK2. The settings on record: ATP 20 μM, 45 min incubation. How it is done: (§1) Functional Assays of Protein Kinases
(§2) The functional assays of protein kinases were carried out in 384-well plates using a final volume of 30 μl. […] The reaction was reads in a “Caliper EzReader LabChip 3000” (Caliper, Hopkinton, Mass.) reader, based on electrophoretic mobility of the fluorescent substrate and the phosphorylated product.
(§3) The inhibition percentages were calculated by comparison between control reactions, for 100% of inhibition and reactions with only DMSO for 0% of inhibition.

The target of another experiment is T2, JAK3 (Homo sapiens, UniProt P52333).
T2 construct: purchased Carna Biosciences 08-046
T2 sequence (P52333 795-1124 limits assumed): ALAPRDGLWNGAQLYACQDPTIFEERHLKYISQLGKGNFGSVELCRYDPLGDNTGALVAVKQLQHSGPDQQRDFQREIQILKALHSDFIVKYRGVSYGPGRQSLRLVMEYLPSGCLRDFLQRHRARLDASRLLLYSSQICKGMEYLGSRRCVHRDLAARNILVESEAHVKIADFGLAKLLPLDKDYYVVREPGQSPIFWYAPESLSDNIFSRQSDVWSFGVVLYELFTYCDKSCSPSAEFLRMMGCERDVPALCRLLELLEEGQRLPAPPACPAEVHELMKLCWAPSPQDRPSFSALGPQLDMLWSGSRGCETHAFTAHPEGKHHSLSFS
The experiment can be described thus: Functional assay of protein kinases (Caliper mobility shift), JAK3. Particulars: ATP 8 μM, 30 min incubation. Here is the method:
as §1, §2, §3

Another experiment has as its target T3, JAK1 (Homo sapiens, UniProt P23458).
T3 construct: purchased Carna Biosciences 08-144
Description: Functional assay of protein kinases (Caliper mobility shift), JAK1. Particulars: ATP 100 μM, 150 min incubation. Here is the method:
as §1, §2, §3

In another experiment the target is T4, JAK2 (Homo sapiens, UniProt O60674).
T4 construct: purchased Carna Biosciences 08-045
T4 sequence (O60674 826-1132 limits assumed): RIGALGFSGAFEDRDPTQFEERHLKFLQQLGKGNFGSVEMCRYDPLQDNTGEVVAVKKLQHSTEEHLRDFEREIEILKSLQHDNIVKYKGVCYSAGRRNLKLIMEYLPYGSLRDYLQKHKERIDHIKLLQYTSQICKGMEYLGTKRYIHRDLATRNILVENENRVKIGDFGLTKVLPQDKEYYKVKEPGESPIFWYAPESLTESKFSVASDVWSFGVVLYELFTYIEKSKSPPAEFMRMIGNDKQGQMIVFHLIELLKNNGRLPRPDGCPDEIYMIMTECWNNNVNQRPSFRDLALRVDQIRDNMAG
Description: Functional assay of protein kinases (Caliper mobility shift), JAK2. The settings on record: ATP 300 μM, 30 min incubation. How it is done: as §1, §2, §3

T3 sequence (P23458 850-1154 limits assumed): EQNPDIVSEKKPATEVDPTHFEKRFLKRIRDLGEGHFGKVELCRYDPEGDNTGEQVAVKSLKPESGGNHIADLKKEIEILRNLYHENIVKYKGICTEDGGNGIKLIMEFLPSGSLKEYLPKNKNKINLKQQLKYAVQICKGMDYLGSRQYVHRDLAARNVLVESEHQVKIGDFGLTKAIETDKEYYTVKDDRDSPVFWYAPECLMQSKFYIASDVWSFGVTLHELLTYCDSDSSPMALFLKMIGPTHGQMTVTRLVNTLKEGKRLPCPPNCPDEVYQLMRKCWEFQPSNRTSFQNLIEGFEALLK

`O=C(N[C@H]1CC[C@H](C(=O)O)CC1)c1cccn2c(=O)c3cc(-c4ccncc4)ccc3nc12` [Example 35, (trans)-4-(11-oxo-2-(pyridin-4-yl)-11H-pyrido[2,1-b]quinazoline-6-carboxamido)cyclohexane-1-carboxylic acid]: the IC50 at TYK2 was not below 1000 nM; at JAK3 it was 100 to 1000 nM.
As to `O=C(N[C@H]1CC[C@@H](C(=O)O)CC1)c1cccn2c(=O)c3cc(-c4cncnc4)ccc3nc12` [Example 37, (cis)-4-(11-oxo-2-(pyrimidin-5-yl)-11H-pyrido[2,1-b]quinazoline-6-carboxamido)cyclohexane-1-carboxylic acid], the IC50 was 100 to 1000 nM on TYK2 and less than 100 nM on JAK3.
As for `O=C(N[C@H]1CC[C@@H](C(=O)O)CC1)c1cccn2c(=O)c3cc(-c4cccnc4)ccc3nc12` [Example 34, (cis)-4-(11-oxo-2-(pyridin-3-yl)-11H-pyrido[2,1-b]quinazoline-6-carboxamido)cyclohexane-1-carboxylic acid], the IC50 on TYK2 and at JAK3 was less than 100 nM in each case.
For the compound `O=C(NC1CCC(C(=O)O)CC1)c1cccn2c(=O)c3cc(Cl)ccc3nc12` (stereo not shown) [Example 23, 4-(2-chloro-11-oxo-11H-pyrido[2,1-b]quinazoline-6-carboxamido)cyclohexane-1-carboxylic add], the IC50 at TYK2 is 100 to 1000 nM; at JAK3, 100 to 1000 nM; at JAK1 it was not below 1000 nM; on JAK2 it was not below 1000 nM.
In the case of `Cn1cnc(-c2ccc3nc4c(C(=O)N[C@H]5CC[C@@H](C(=O)O)CC5)cccn4c(=O)c3c2)c1` [Example 44, (1S,4S)-4-(2-(1-methyl-1H-Imidazol-4-yl)-11-oxo-11H-pyrido[2,1-b]quinazoline-6-carboxamido)cyclohexane-1-carboxylic acid], the IC50 at TYK2 and on JAK3 was less than 100 nM in each case.
As to `O=C(N[C@H]1CC[C@@H](C(=O)O)CC1)c1cccn2c(=O)c3cc(-c4ccc(F)c(F)c4)ccc3nc12` [Example 30, (cis)-4-(2-(3,4-difluorophenyl)-11-oxo-11H-pyrido[2,1-b]quinazoline-6-carboxamido)cyclohexane-1-carboxylic acid], the IC50 at TYK2 and on JAK3 was less than 100 nM throughout.
Regarding `N#Cc1ccc(-c2ccc3nc4c(C(=O)N[C@H]5CC[C@@H](C(=O)O)CC5)cccn4c(=O)c3c2)cc1` [Example 31, (cis)-4-(2-(4-cyanophenyl)-11-oxo-11H-pyrido[2,1-b]quinazoline-6-carboxamido)cyclohexane-1-carboxylic acid], the IC50 on TYK2 and on JAK3 was less than 100 nM each time.
`N#Cc1cccc(-c2ccc3nc4c(C(=O)N[C@H]5CC[C@@H](C(=O)O)CC5)cccn4c(=O)c3c2)c1` [Example 32, (cis)-4-(2-(3-cyanophenyl)-11-oxo-11H-pyrido[2,1-b]quinazoline-6-carboxamido)cyclohexane-1-carboxylic acid]: the IC50 on TYK2 and at JAK3 was less than 100 nM each time.
In the case of `O=C(O)c1ccc(-c2ccc3nc4c(C(=O)N[C@H]5CC[C@@H](C(=O)O)CC5)cccn4c(=O)c3c2)s1` [Example 47, 5-(6-(((1s,4s)-4-carboxycyclohexyl)carbamoyl)-11-oxo-11H-pyrido[2,1-b]quinazolin-2-yl)thiophene-2-carboxylic acid], the IC50 on TYK2 and on JAK3 was less than 100 nM throughout.
Take `O=C(NC1CCC(C(=O)O)CC1)c1cccn2c(=O)c3ccccc3nc12` (stereo not shown) [Example 12, 4-(11-oxo-11H-pyrido[2,1-b]quinazoline-6-carboxamido)cyclohexane-1-carboxylic acid]: the IC50 at TYK2 is 100 to 1000 nM; on JAK3, 100 to 1000 nM; at JAK1 it was not below 1000 nM; at JAK2, not below 1000 nM.
For the compound `O=C(NC1CCC(C(=O)O)CC1)c1cccn2c(=O)c3cc(O)ccc3nc12` (stereo not shown) [Example 19, 4-(2-hydroxy-11-oxo-11H-pyrido[2,1-b]quinazoline-6-carboxamido)cyclohexane-1-carboxylic acid], the half-inhibitory concentration (IC50) at TYK2 and at JAK3 was 100 to 1000 nM each time.
`O=C(N[C@H]1CC[C@@H](C(=O)O)CC1)c1cccn2c(=O)c3cc(-c4ccc(C5CC5)s4)ccc3nc12` [Example 45, (1S,4S)-4-(2-(5-cyclpropylthiophen-2-yl)-11-oxo-11H-pyrido[2,1-b]quinazoline-6-carboxamido)cyclohexane-1-carboxylic acid]: the concentration for half-maximal inhibition (IC50) on TYK2 and at JAK3 was less than 100 nM throughout.
`O=C(N[C@H]1CC[C@@H](C(=O)O)CC1)c1cccn2c(=O)c3cc(-c4ccncc4F)ccc3nc12` [Example 36, (cis)-4-(2-(3-fluoropyridin-4-yl)-11-oxo-11H-pyrido[2,1-b]quinazoline-6-carboxamido)cyclohexane-1-carboxylic acid]: the concentration for half-maximal inhibition (IC50) is 100 to 1000 nM at TYK2 and less than 100 nM at JAK3.
As to `O=C(NC12CCC(C(=O)O)(CC1)C2)c1cccn2c(=O)c3cc(C4CC4)ccc3nc12` [Example 7, 4-(2-cyclpropyl-11-oxo-11H-pyrido[2,1-b]quinazoline-6-carboxamido)bicyclo[2.2.1]heptane-1-carboxylic acid], the IC50 at TYK2 is 100 to 1000 nM; at JAK3, 100 to 1000 nM; on JAK1, not below 1000 nM; at JAK2, not below 1000 nM.
Regarding `Cc1ccc(-c2ccc3nc4c(C(=O)N[C@H]5CC[C@@H](C(=O)O)CC5)cccn4c(=O)c3c2)s1` [Example 2, (1S,4S)-4-(2-(5-methylthiophen-2-yl)-11-oxo-11H-pyrido[2,1-b]quinazoline-6 carboxamido)cyclohexane-1-carboxylic acid], the IC50 at TYK2 and on JAK3 was less than 100 nM each time.
With `O=C(N[C@H]1CC[C@@H](C(=O)O)CC1)c1cc(Br)cn2c(=O)c3ccccc3nc12` [Example 40, (cis)-4-(8-bromo-11-oxo-11H-pyrido[2,1-b]quinazoline-6-carboxamido)cyclohexane-1-carboxylic acid], the IC50 was less than 100 nM on TYK2 and 100 to 1000 nM at JAK3.
Regarding `O=C(NC1CCC(C(=O)O)CC1)c1cccn2c(=O)c3cc(C4CC4)ccc3nc12` (stereo not shown) [Example 1, 4-(2-cyclpropyl-11-oxo-11H-pyrido[2,1-b]quinazoline-6-carboxamido)cyclohexane-1-carboxylic acid], the IC50 is less than 100 nM on JAK3, not below 1000 nM on JAK1 and not below 1000 nM at JAK2.
Consider `Cn1cc(-c2ccc3nc4c(C(=O)N[C@H]5CC[C@@H](C(=O)O)CC5)cccn4c(=O)c3c2)cn1` [Example 38, (cis)-4-(2-(1-methyl-1H-pyrazol-4-yl)-11-oxo-11H-pyrido[2,1-b]quinazoline-6-carboxamido)cyclohexane-1-carboxylic acid], for which the IC50 on TYK2 and on JAK3 was less than 100 nM each time.
On to `O=C(N[C@H]1CC[C@@H](C(=O)O)CC1)c1cccn2c(=O)c3cc(-c4cccc(F)c4)ccc3nc12` [Example 29, (cis)-4-(2-(3-fluorophenyl)-11-oxo-11H-pyrido[2,1-b]quinazoline-6-carboxamido)cyclohexane-1-carboxylic acid], for which the IC50 at TYK2 and on JAK3 was less than 100 nM throughout.
Turning to `O=C(N[C@H]1CC[C@@H](C(=O)O)CC1)c1cccn2c(=O)c3cc(-c4cccs4)ccc3nc12` [Example 39, (cis)-4-(11-oxo-2-(thiophen-2-yl)-11H-pyrido[2,1-b]quinazoline-6-carboxamido)cyclohexane-1-carboxylic acid], the IC50 on TYK2 and at JAK3 was less than 100 nM in each case.
On to `NC(=O)c1ccc(-c2ccc3nc4c(C(=O)N[C@H]5CC[C@@H](C(=O)O)CC5)cccn4c(=O)c3c2)s1` [Example 43, (1S,4S)-4-(2-(5-carbamoylthiophen-2-yl)-11-oxo-11H-pyrido[2,1-b]quinazoline-6-carboxamido)cyclohexane-1-carboxylic acid], for which the IC50 on TYK2 and on JAK3 was less than 100 nM throughout.
As to `N#Cc1ccc(-c2ccc3nc4c(C(=O)N[C@H]5CC[C@@H](C(=O)O)CC5)cccn4c(=O)c3c2)s1` [Example 42, (1S,4S)-4-(2-(5-cyanothiophen-2-yl)-11-oxo-11H-pyrido[2,1-b]quinazoline-6-carboxamido)cyclohexane-1-carboxylic acid], the IC50 on TYK2 and at JAK3 was less than 100 nM throughout.
With `O=C(O)c1ccc(-c2ccc3nc4c(C(=O)N[C@H]5CC[C@@H](C(=O)O)CC5)cccn4c(=O)c3c2)cc1` [Example 33, 4-(6-(((cis)-4-carboxycyclohexyl)carbamoyl)-11-oxo-11H-pyrido[2,1-b]quinazolin-2-yl)benzoic acid], the IC50 on TYK2 and at JAK3 was less than 100 nM in each case.
`O=C(NC1CC(C(=O)O)C1)c1cccn2c(=O)c3cc(C4CC4)ccc3nc12` (stereo not shown) [Example 41, 3-(2-cyclopropyl-11-oxo-11H-pyrido[2,1-b]quinazoline-6-carboxamido)cyclobutane-1-carboxylic acid]: the IC50 at TYK2 and at JAK3 was 100 to 1000 nM each time.

As a reminder, the IC50 is the midpoint of a concentration-inhibition curve.
